Values after ≈ are worked out from the molar mass of the structure shown.
Tests used:
Format in all cases: functional, cell-based
HepG2 = assay: Antiproliferative activity against human HepG2 cells
SW480 = assay: Antiproliferative activity against human SW480 cells
[1] = Antiproliferative activity against human Lu cells
MCF7 = assay: Antiproliferative activity against human MCF7 cells
P338 = assay: Antiproliferative activity against mouse […] cells
HeLa = assay: Antiproliferative activity against human HeLa cells

Question: What does the source list for `COc1ccc(/C=C/C(=O)c2ccc(OCCn3cc(CN4C(=O)/C=C/C(C)(C)C/C=C(\C)CC/C=C/4C)nn3)cc2O)cc1`?
Answer: IC50 (HepG2): 2.06 mg/L (≈ 3.37 µM); IC50 (SW480): 3.24 mg/L (≈ 5.3 µM); IC50 [1]: 1.67 mg/L (≈ 2.73 µM); IC50 (MCF7): 2.85 mg/L (≈ 4.67 µM); IC50 (P338): 1.21 mg/L (≈ 1.98 µM)

Question: For `COc1cccc(/C=C/C(=O)c2ccc(OCCn3cc(CN4C(=O)/C=C/C(C)(C)C/C=C(\C)CC/C=C/4C)nn3)cc2O)c1`, which IC50 (HepG2) is on record?
Answer: The IC50 was 1.01 mg/L (≈ 1.65 µM).

Question: What about the IC50 (SW480) of the same compound?
Answer: The IC50 was 0.95 mg/L (≈ 1.56 µM).

Question: What about the IC50 [1] of the same compound?
Answer: The IC50 was 0.61 mg/L (≈ 0.999 µM).

Question: And the IC50 (MCF7)?
Answer: Its IC50 is 1.12 mg/L (≈ 1.83 µM).

Question: And the IC50 (P338)?
Answer: The IC50 was 0.89 mg/L (≈ 1.46 µM).

Question: With `COc1ccccc1/C=C/C(=O)c1ccc(OCCn2cc(CN3C(=O)/C=C/C(C)(C)C/C=C(\C)CC/C=C/3C)nn2)cc1O` as the compound, how does the IC50 (HepG2) read?
Answer: Its IC50 is 1.71 mg/L (≈ 2.8 µM).

Question: What about the IC50 (SW480) of the same compound?
Answer: Its IC50 is 0.9 mg/L (≈ 1.47 µM).

Question: And the IC50 [1]?
Answer: Its IC50 is 2.4 mg/L (≈ 3.93 µM).

Question: And the IC50 (MCF7)?
Answer: Its IC50 is 1.17 mg/L (≈ 1.92 µM).

Question: What about the IC50 (P338) of the same compound?
Answer: Its IC50 is 1.1 mg/L (≈ 1.8 µM).

Question: With `COc1cc(/C=C/C(=O)c2ccc(OCCn3cc(CN4C(=O)/C=C/C(C)(C)C/C=C(\C)CC/C=C/4C)nn3)cc2O)cc(OC)c1OC` as the compound, how does the IC50 (HepG2) read?
Answer: The IC50 was 1.44 mg/L (≈ 2.15 µM).

Question: And the IC50 (SW480)?
Answer: The IC50 was 2.61 mg/L (≈ 3.89 µM).

Question: What about the IC50 [1] of the same compound?
Answer: The IC50 was 1.28 mg/L (≈ 1.91 µM).

Question: And the IC50 (MCF7)?
Answer: The IC50 was 2.78 mg/L (≈ 4.14 µM).

Question: What about the IC50 (P338) of the same compound?
Answer: The IC50 was 0.89 mg/L (≈ 1.33 µM).

Question: Which results are given for `C/C1=C\CC(C)(C)/C=C/C(=O)N(Cc2cn(CCOc3ccc(C(=O)/C=C/c4ccc(C)cc4)c(O)c3)nn2)/C(C)=C/CC1`?
Answer: IC50 (HepG2): 0.87 mg/L (≈ 1.46 µM); IC50 (SW480): 1.16 mg/L (≈ 1.95 µM); IC50 [1]: 0.91 mg/L (≈ 1.53 µM); IC50 (MCF7): 1.21 mg/L (≈ 2.03 µM); IC50 (P338): 0.92 mg/L (≈ 1.55 µM)

Question: What does the source list for `COc1ccc(/C=C/C(=O)c2ccc(OCCn3cc(CN4C(=O)/C=C/C(C)(C)C/C=C(\C)CC/C=C/4C)nn3)cc2O)cc1OCCCN1CCOCC1`?
Answer: IC50 (HepG2): 1.59 mg/L (≈ 2.11 µM); IC50 (SW480): 0.91 mg/L (≈ 1.21 µM); IC50 [1]: 1.56 mg/L (≈ 2.07 µM); IC50 (MCF7): 1.13 mg/L (≈ 1.5 µM); IC50 (P338): 0.96 mg/L (≈ 1.27 µM)

Question: For `C/C1=C\CC(C)(C)/C=C/C(=O)N(Cc2cn(CCOc3ccc(C(=O)/C=C/c4ccc(C(C)C)cc4)c(O)c3)nn2)/C(C)=C/CC1`, which IC50 (HepG2) is on record?
Answer: Its IC50 is 0.84 mg/L (≈ 1.35 µM).

Question: And the IC50 (SW480)?
Answer: The IC50 was 0.85 mg/L (≈ 1.36 µM).

Question: What about the IC50 [1] of the same compound?
Answer: Its IC50 is 0.77 mg/L (≈ 1.24 µM).

Question: And the IC50 (MCF7)?
Answer: The IC50 was 0.93 mg/L (≈ 1.49 µM).

Question: What about the IC50 (P338) of the same compound?
Answer: Its IC50 is 1.39 mg/L (≈ 2.23 µM).

Question: What does the source list for `COc1ccc(/C=C/C(=O)c2ccc(OCCCN3C(=O)/C=C/C(C)(C)C/C=C(\C)CC/C=C/3C)cc2)cc1`?
Answer: IC50 (HepG2): 1.73 mg/L (≈ 3.28 µM); IC50 (SW480): 2.92 mg/L (≈ 5.53 µM); IC50 [1]: 2.56 mg/L (≈ 4.85 µM); IC50 (MCF7): 3.17 mg/L (≈ 6.01 µM); IC50 (P338): 1.3 mg/L (≈ 2.46 µM)

Question: With `COc1cccc(/C=C/C(=O)c2ccc(OCCCN3C(=O)/C=C/C(C)(C)C/C=C(\C)CC/C=C/3C)cc2)c1` as the compound, how does the IC50 (HepG2) read?
Answer: Its IC50 is 1.38 mg/L (≈ 2.62 µM).

Question: And the IC50 (SW480)?
Answer: Its IC50 is 1.34 mg/L (≈ 2.54 µM).

Question: And the IC50 [1]?
Answer: Its IC50 is 1.06 mg/L (≈ 2.01 µM).

Question: And the IC50 (MCF7)?
Answer: Its IC50 is 1.37 mg/L (≈ 2.6 µM).

Question: And the IC50 (P338)?
Answer: Its IC50 is 1.1 mg/L (≈ 2.08 µM).

Question: With `COc1ccccc1/C=C/C(=O)c1ccc(OCCCN2C(=O)/C=C/C(C)(C)C/C=C(\C)CC/C=C/2C)cc1` as the compound, how does the IC50 (HepG2) read?
Answer: Its IC50 is 1.44 mg/L (≈ 2.73 µM).

Question: And the IC50 (SW480)?
Answer: Its IC50 is 1.33 mg/L (≈ 2.52 µM).

Question: What about the IC50 [1] of the same compound?
Answer: The IC50 was 2.82 mg/L (≈ 5.34 µM).

Question: What about the IC50 (MCF7) of the same compound?
Answer: Its IC50 is 1.56 mg/L (≈ 2.96 µM).

Question: And the IC50 (P338)?
Answer: The IC50 was 0.83 mg/L (≈ 1.57 µM).

Question: For `COc1cc(/C=C/C(=O)c2ccc(OCCCN3C(=O)/C=C/C(C)(C)C/C=C(\C)CC/C=C/3C)cc2)cc(OC)c1OC`, which IC50 (HepG2) is on record?
Answer: The IC50 was 0.99 mg/L (≈ 1.68 µM).

Question: And the IC50 (SW480)?
Answer: The IC50 was 0.71 mg/L (≈ 1.21 µM).

Question: What about the IC50 [1] of the same compound?
Answer: Its IC50 is 1.01 mg/L (≈ 1.72 µM).

Question: And the IC50 (MCF7)?
Answer: Its IC50 is 0.58 mg/L (≈ 0.987 µM).

Question: And the IC50 (P338)?
Answer: The IC50 was 0.77 mg/L (≈ 1.31 µM).

Question: For `C/C1=C\CC(C)(C)/C=C/C(=O)N(CCCOc2ccc(C(=O)/C=C/c3ccc(C)cc3)cc2)/C(C)=C/CC1`, which IC50 (HepG2) is on record?
Answer: Its IC50 is 1.53 mg/L (≈ 2.99 µM).

Question: And the IC50 (SW480)?
Answer: Its IC50 is 1.57 mg/L (≈ 3.07 µM).

Question: What about the IC50 [1] of the same compound?
Answer: The IC50 was 1.18 mg/L (≈ 2.31 µM).

Question: What about the IC50 (MCF7) of the same compound?
Answer: The IC50 was 1.21 mg/L (≈ 2.36 µM).

Question: And the IC50 (P338)?
Answer: The IC50 was 1.29 mg/L (≈ 2.52 µM).

Question: With `COc1ccc(/C=C/C(=O)c2ccc(OCCCN3C(=O)/C=C/C(C)(C)C/C=C(\C)CC/C=C/3C)cc2)cc1OCCCN1CCOCC1` as the compound, how does the IC50 (HepG2) read?
Answer: Its IC50 is 1.53 mg/L (≈ 2.28 µM).

Question: What about the IC50 (SW480) of the same compound?
Answer: The IC50 was 0.8 mg/L (≈ 1.19 µM).

Question: What about the IC50 [1] of the same compound?
Answer: Its IC50 is 1.22 mg/L (≈ 1.82 µM).

Question: And the IC50 (MCF7)?
Answer: Its IC50 is 1.07 mg/L (≈ 1.59 µM).

Question: And the IC50 (P338)?
Answer: The IC50 was 1.08 mg/L (≈ 1.61 µM).

Question: Which IC50 (HepG2) does the source give for `C/C1=C\CC(C)(C)/C=C/C(=O)N/C(C)=C/CC1` here?
Answer: Its IC50 is 34.6 mg/L (≈ 148 µM).

Question: And the IC50 (SW480)?
Answer: Its IC50 is 6.83 mg/L (≈ 29.3 µM).

Question: What about the IC50 [1] of the same compound?
Answer: The IC50 was 17.8 mg/L (≈ 76.4 µM).

Question: What about the IC50 (MCF7) of the same compound?
Answer: Its IC50 is 15.6 mg/L (≈ 67 µM).

Question: And the IC50 (P338)?
Answer: The IC50 was 6.25 mg/L (≈ 26.8 µM).

Question: What does the source list for `Cc1c2ccncc2c(C)c2c1[nH]c1ccccc12` [ELLIPTECINE]?
Answer: IC50 (HepG2): 0.36 mg/L (≈ 1.46 µM); IC50 (SW480): 0.38 mg/L (≈ 1.54 µM); IC50 [1]: 0.63 mg/L (≈ 2.56 µM); IC50 (MCF7): 0.44 mg/L (≈ 1.79 µM); IC50 (P338): 0.44 mg/L (≈ 1.79 µM)

Question: Which IC50 (HepG2) does the source give for `C/C1=C\CC(C)(C)/C=C/C(=O)/C(C)=C/CC1` [ZERUMBONE] here?
Answer: The IC50 was 13.3 mg/L (≈ 61.1 µM).

Question: And the IC50 (SW480)?
Answer: The IC50 was 3.15 mg/L (≈ 14.4 µM).

Question: And the IC50 [1]?
Answer: The IC50 was 6.05 mg/L (≈ 27.7 µM).

Question: What about the IC50 (HeLa) of the same compound?
Answer: The IC50 was 2.5 mg/L (≈ 11.5 µM).

Question: What about the IC50 (MCF7) of the same compound?
Answer: The IC50 was 9.67 mg/L (≈ 44.3 µM).

Question: And the IC50 (P338)?
Answer: Its IC50 is 2.63 mg/L (≈ 12 µM).

Source: ChEMBL document CHEMBL3627635, “Synthesis and anti-proliferative activity of novel azazerumbone conjugates with chalcones” (Bioorg Med Chem Lett, 2015)
